One block for each molecule: values may come before it.
Experiments:
[1] = target: Rho-associated protein kinase 2 (Homo sapiens, UniProt O75116); experiment: Selectivity interaction (Kinase panel (Z-LYTE Assay)) EUB0001632a ROCK2; details: at 10 µM
[2] = target: Acetylcholine receptor subunit alpha (Homo sapiens, UniProt P02708); experiment: Selectivity interaction (Panel of kinases, GPCRs, ion channels and transporters (enzymatic assay)) EUB0000266bCl CHRNA1
[3] = target: T1, Serine/threonine-protein kinase D3 (Homo sapiens) (UniProt O94806); experiment: Selectivity interaction (Kinase panel (Invitrogen)) EUB0000639a PRKD3; details: at 200 nM
T1 sequence (whole entry): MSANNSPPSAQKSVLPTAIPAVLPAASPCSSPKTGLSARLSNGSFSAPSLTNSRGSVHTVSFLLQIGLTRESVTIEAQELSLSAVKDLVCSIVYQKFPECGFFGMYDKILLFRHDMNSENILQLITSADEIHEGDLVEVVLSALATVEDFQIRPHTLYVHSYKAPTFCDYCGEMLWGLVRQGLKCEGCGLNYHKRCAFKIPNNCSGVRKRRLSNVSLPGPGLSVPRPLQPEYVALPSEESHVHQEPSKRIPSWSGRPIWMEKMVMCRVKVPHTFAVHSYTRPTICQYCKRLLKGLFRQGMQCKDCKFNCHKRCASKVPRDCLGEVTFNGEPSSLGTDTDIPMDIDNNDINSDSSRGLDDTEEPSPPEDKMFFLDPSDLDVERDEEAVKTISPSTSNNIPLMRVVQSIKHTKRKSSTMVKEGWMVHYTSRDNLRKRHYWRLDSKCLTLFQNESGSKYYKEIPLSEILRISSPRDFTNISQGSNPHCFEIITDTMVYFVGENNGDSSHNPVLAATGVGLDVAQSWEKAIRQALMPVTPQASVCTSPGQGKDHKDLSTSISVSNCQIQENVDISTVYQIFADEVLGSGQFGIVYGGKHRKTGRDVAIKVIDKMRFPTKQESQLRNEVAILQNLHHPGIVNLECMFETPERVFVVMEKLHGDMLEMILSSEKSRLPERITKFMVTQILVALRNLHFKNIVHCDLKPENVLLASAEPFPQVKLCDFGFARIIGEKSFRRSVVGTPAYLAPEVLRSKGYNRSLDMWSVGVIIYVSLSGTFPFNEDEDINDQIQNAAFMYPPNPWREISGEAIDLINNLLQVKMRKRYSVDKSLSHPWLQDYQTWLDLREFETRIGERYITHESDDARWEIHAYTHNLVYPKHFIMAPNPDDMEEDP

[4] = target: Tyrosine-protein kinase SYK (Homo sapiens, UniProt P43405); experiment: Selectivity interaction (ActivX KiNativ screen (kinase selectivity in THP-1 cell lysates)) EUB0000639a SYK; assay type: subcellular; details: lysate, at 0.01 µM
[5] = target: Tyrosine-protein kinase HCK (Homo sapiens) (UniProt P08631); experiment: Selectivity interaction (ProQinase) EUB0000171b HCK
[6] = target: Mitogen-activated protein kinase 14 (Homo sapiens, UniProt Q16539); experiment: Selectivity interaction (Kinase panel (DSF assay)) EUB0001558a MAPK14
[7] = target: Serine/threonine-protein kinase 10 (Homo sapiens) (UniProt O94804); experiment: Selectivity interaction (KinomeScan (DiscoverX)) EUB0000655a STK10; details: at 10 µM
[8] = target: RAC-gamma serine/threonine-protein kinase (Homo sapiens, UniProt Q9Y243); experiment: Selectivity interaction (KinomeScan (DiscoverX)) EUB0001079a AKT3; details: at 1 µM
[9] = target: T2, Peripheral plasma membrane protein CASK (Homo sapiens) (UniProt O14936); experiment: Selectivity interaction (KinomeScan (DiscoverX)) EUB0001079a CASK; details: at 1 µM
T2 sequence (whole entry): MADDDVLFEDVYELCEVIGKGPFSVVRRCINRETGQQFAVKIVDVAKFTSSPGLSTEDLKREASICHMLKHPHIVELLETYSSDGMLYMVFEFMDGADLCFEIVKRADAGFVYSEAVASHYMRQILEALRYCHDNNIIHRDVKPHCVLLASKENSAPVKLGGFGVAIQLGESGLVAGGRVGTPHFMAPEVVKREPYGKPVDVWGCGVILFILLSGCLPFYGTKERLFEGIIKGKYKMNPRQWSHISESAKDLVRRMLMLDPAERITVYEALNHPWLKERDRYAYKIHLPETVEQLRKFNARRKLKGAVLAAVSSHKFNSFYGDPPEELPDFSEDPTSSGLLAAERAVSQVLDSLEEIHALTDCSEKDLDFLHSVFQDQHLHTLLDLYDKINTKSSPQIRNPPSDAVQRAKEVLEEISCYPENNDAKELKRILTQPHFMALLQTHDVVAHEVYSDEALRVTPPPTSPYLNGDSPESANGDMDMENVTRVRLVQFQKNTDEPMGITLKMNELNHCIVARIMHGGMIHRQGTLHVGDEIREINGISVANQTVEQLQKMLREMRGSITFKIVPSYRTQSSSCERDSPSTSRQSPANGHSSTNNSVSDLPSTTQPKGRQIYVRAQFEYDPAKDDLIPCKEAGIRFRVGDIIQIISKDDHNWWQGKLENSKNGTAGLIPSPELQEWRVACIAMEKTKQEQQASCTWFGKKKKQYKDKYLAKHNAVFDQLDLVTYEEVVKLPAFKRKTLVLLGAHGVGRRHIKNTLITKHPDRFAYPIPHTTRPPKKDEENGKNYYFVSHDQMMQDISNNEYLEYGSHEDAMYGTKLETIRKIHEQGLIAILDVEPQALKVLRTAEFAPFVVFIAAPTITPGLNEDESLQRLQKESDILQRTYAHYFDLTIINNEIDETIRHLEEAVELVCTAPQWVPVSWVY

[10] = target: Serine/threonine-protein kinase PAK 2 (Homo sapiens) (UniProt Q13177); experiment: Selectivity interaction (KinomeScan (DiscoverX)) EUB0001079a PAK2; details: at 1 µM
[11] = target: T3, Serine/threonine-protein kinase Chk1 (Homo sapiens) (UniProt O14757); experiment: Selectivity interaction (KinomeScan (DiscoverX)) EUB0001619a CHEK1; details: at 1 µM
T3 sequence (whole entry): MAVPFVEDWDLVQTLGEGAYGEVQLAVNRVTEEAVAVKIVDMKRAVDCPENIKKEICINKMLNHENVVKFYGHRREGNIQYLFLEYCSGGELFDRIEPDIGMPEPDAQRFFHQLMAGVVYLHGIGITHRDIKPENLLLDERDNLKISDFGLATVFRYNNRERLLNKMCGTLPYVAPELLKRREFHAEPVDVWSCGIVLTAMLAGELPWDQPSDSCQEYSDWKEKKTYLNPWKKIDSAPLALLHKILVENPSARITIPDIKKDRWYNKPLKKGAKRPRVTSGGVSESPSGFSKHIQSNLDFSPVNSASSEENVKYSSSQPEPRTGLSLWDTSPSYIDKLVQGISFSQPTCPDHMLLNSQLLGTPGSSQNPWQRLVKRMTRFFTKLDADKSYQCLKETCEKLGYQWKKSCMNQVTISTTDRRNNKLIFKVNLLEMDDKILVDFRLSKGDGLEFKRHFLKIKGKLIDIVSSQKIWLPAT

Tyrosine-protein kinase HCK (Homo sapiens), sequence (P08631 2-526 limits assumed): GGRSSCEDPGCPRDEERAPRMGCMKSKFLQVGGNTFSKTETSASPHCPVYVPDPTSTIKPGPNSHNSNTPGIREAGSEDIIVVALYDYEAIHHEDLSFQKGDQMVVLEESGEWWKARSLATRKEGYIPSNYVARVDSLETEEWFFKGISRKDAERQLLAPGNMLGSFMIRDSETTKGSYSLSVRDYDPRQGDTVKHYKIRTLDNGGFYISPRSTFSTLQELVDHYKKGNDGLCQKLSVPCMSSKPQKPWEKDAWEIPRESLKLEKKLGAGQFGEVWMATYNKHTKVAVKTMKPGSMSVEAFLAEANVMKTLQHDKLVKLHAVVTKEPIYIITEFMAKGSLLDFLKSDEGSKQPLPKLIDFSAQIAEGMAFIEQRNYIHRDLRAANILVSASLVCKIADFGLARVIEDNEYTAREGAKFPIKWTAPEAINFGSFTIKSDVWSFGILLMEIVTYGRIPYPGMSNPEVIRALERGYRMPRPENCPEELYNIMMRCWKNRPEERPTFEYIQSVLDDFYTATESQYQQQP
RAC-gamma serine/threonine-protein kinase, sequence (Q9Y243 whole entry): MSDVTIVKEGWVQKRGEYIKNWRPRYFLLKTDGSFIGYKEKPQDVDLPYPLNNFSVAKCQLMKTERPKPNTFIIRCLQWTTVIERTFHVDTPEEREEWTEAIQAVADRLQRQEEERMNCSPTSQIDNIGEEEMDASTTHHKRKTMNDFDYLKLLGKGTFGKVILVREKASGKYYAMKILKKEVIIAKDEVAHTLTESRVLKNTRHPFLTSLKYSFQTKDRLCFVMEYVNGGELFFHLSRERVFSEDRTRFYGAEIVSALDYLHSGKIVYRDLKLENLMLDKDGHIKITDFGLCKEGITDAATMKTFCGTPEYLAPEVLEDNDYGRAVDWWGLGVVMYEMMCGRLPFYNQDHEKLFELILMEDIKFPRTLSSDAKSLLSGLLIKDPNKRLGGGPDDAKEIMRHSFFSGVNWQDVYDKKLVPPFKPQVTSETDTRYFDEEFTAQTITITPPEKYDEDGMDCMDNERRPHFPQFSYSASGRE
Serine/threonine-protein kinase PAK 2 (Homo sapiens), sequence (Q13177 whole entry): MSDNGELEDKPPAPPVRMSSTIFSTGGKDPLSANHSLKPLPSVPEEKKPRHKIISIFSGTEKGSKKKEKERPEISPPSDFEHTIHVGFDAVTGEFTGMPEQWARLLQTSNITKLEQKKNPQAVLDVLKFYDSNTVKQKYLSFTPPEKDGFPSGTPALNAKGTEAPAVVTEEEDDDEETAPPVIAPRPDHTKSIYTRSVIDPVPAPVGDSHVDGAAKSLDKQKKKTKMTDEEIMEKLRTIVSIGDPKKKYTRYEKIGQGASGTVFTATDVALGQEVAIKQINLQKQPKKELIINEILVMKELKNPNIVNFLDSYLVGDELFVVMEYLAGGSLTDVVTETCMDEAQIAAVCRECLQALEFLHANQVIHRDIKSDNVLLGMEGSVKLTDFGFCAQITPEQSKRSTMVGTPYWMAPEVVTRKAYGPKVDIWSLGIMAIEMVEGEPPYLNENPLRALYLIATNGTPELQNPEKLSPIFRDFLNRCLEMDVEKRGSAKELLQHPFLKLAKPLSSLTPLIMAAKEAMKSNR
Mitogen-activated protein kinase 14, sequence (Q16539 whole entry): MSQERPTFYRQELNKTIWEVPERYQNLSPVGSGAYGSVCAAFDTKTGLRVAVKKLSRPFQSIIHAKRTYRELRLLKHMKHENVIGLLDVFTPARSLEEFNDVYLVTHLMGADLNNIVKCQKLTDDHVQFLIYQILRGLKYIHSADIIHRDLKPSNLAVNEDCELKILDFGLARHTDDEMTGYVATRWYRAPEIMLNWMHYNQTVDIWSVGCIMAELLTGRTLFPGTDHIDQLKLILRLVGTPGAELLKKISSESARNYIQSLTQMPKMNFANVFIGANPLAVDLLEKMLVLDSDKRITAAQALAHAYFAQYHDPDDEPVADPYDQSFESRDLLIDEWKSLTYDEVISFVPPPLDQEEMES
Rho-associated protein kinase 2, sequence (O75116 whole entry, looked up): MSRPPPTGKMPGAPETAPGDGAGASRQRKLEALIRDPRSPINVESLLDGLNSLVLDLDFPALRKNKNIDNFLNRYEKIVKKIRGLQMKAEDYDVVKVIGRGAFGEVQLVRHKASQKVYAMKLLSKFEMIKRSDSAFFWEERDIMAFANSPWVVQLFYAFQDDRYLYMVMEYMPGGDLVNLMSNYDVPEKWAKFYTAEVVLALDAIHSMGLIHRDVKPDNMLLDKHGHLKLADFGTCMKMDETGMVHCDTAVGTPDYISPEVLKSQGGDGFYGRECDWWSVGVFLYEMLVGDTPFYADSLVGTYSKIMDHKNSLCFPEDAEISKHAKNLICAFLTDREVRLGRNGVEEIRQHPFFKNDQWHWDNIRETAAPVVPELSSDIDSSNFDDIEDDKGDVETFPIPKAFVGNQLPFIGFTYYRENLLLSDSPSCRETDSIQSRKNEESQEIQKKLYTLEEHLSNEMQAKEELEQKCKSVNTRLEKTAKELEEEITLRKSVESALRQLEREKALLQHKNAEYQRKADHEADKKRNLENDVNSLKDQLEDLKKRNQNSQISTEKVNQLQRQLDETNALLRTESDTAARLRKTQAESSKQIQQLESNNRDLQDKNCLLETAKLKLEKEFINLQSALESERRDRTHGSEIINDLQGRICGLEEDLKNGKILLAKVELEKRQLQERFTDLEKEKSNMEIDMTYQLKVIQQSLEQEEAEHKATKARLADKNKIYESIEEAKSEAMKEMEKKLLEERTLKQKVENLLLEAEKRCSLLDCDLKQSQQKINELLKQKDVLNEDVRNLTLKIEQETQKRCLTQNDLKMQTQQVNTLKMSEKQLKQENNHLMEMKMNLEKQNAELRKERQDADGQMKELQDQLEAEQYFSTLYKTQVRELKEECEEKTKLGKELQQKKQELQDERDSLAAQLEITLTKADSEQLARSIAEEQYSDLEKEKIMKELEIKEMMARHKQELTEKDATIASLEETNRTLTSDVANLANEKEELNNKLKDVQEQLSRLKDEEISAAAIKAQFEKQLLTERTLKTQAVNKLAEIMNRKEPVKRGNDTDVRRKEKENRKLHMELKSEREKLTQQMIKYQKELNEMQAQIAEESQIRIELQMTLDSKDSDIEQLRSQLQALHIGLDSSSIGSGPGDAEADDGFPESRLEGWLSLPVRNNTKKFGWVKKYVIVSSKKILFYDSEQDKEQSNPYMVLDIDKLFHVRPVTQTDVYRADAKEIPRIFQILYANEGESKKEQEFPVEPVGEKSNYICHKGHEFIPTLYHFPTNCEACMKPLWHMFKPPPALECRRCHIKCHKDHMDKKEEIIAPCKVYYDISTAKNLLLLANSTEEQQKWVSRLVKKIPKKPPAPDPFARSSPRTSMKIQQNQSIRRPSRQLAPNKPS
Acetylcholine receptor subunit alpha, sequence (P02708 whole entry): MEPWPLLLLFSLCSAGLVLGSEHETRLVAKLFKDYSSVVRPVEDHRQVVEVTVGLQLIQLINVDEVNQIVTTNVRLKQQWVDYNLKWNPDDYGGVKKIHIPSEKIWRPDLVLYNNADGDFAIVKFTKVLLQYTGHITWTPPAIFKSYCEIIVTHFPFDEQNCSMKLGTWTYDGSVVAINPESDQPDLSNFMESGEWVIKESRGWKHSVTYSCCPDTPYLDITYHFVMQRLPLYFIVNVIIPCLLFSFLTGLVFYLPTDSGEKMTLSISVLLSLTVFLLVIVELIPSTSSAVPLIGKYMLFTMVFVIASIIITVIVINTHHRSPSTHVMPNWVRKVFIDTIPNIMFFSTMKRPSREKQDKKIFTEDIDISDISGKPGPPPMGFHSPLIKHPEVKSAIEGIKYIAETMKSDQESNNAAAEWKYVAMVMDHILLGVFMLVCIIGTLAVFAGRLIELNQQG
Serine/threonine-protein kinase 10 (Homo sapiens), sequence (O94804 whole entry, looked up): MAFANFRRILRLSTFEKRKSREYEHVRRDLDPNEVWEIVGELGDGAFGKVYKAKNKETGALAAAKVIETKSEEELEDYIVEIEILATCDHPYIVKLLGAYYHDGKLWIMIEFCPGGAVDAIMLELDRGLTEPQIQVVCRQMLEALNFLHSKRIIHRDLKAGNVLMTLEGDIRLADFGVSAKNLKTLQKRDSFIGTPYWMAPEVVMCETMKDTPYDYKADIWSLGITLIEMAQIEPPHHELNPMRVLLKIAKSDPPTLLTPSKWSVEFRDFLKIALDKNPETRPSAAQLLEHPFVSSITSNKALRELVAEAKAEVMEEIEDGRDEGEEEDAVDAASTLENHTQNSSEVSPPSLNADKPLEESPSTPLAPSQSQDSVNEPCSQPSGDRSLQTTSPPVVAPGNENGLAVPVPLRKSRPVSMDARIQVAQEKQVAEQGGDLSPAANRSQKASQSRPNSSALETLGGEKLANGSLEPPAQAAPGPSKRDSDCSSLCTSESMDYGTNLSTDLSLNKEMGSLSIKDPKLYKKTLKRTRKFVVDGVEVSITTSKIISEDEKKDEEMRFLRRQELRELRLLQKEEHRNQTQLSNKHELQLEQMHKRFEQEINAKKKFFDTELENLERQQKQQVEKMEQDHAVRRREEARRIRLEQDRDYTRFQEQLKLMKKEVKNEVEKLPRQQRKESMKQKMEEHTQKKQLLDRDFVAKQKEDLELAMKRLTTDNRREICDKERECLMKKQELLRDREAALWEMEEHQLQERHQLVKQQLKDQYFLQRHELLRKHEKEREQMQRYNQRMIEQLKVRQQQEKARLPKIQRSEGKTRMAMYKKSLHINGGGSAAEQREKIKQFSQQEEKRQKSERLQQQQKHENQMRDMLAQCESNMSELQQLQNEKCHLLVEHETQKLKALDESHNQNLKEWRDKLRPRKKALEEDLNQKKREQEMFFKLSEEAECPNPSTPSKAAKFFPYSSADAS

% of control [1]: 3.57%
SMILES: Cn1cc(-n2cnc3c(NCc4nc5cc(Cl)c(Cl)cc5[nH]4)nc(N4CCOCC4)nc32)cn1

pXC50 [2]: < 4.8 M
SMILES: CCn1c(-c2nc3cc(C(=O)N4CCCC(N)C4)ccc3n2C)cc2ccccc21 (configuration not stated)

% of inhibition [3]: 10.2% | % of inhibition [4]: 7.1%
SMILES: CC[C@@H]1[C@H](F)C(=O)N[C@@H]1COc1nccc2cc(C(N)=O)c(OC)cc12 [ZIMLOVISERTIB]

% of control ([5]; at 1 µM): 105% | % of control ([5]; at 5 µM): 88%
SMILES: C=CC(=O)Nc1cccc(C(=O)Nc2ccc(Nc3cc(-c4[nH]c(SC)nc4C)ccn3)cc2)c1

SMILES: CC(C)(O)[C@H](F)CN1Cc2cc(NC(=O)c3cnn4cccnc34)c(N3CCOCC3)cc2C1=O
dTM [6]: 0.3 K

SMILES: CN(C)CCOc1ccc(-c2nc(-c3ccncc3)c(-c3ccc4c(c3)CC/C4=N\O)[nH]2)cc1
% of control [7]: 0.6%

SMILES: Nc1cnc(N2CCc3cc(S(=O)(=O)Nc4c(F)cc(Cl)cc4F)cc(N4CCCC4=O)c32)nc1 [TP-020n]
% of control [8]: 94% | % of control [9]: 94% | % of control [10]: 78%

SMILES: N#Cc1cccc(-c2c[nH]c3ncnc(N4CCOCC4)c23)c1
% of control [11]: 94%
